# Assay results published in patent US12319655B2, “RAF kinase inhibitors and methods of use thereof” (Deciphera Pharmaceuticals, LLC, priority 2021, dated 2025).
# What was measured:
# [1] = biological target: B-Raf (V600E) (SEQ. ID NO: 4) kinase (Homo sapiens (Human), UniProt P15056, V600E); assay: Biochemical Assay for B-Raf (V600E) (1); conditions: Table J, BRAF V600E, assay version (1); read-out: BRAF VE (1) IC50
# Summary of the method: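 Serially diluted compounds tested against 0.03 nM enzyme with 30.1 nM MEK substrate and 1 mM ATP (Tris pH 7.5, 15 mM MgCl2), ATP use coupled to NADH loss via PK/LDH. A340 monitored continuously 6 h, 30 °C; IC50 fitted (four-parameter) from the 3–4 h rate versus no-compound and known-inhibitor controls.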
# A375 cells = assay: A375 Cell Proliferation Assay (1); format: cell-based; conditions: Homo sapiens, A-375
# Summary of the method: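 Resazurin fluorescence (excitation 540 nm, emission 600 nm, after a further 5-6 h) gave IC50s from triplicate compound dilution series.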
# WM3928 cells = assay: WM3928 Cell Proliferation Assay (1); format: cell-based
# Summary of the method: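 IC50 was derived from resazurin fluorescence (ex 540, em 600 nm) after a 6–7 h dye incubation. Before that, cells had 67–72 h of compound exposure at 37 °C, 5% CO2.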
# Miapaca-2 cells = assay: MiaPaca-2 Cell Proliferation Assay (1); format: cell-based; conditions: Homo sapiens, MIA PaCa-2, single agent, read-out: MiaPaca2 (1) IC50
# Summary of the method: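 Resazurin was added after compound exposure and incubated 5-6 h, then fluorescence read at 540 nm excitation and 600 nm emission to give IC50.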
# Chain of B-Raf (V600E) (SEQ. ID NO: 4) kinase (P15056 416-766 V600E): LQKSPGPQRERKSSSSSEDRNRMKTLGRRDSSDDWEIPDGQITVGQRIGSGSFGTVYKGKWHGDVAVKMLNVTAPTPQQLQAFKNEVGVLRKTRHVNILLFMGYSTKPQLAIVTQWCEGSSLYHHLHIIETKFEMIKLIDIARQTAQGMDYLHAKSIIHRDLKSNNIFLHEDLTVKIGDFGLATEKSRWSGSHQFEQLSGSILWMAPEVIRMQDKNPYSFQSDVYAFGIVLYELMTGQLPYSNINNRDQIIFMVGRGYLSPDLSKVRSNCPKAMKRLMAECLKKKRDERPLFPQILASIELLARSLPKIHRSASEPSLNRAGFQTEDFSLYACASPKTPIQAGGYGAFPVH
SMILES,IC50 [1] [nM],IC50 (A375 cells) [nM],IC50 (WM3928 cells) [nM],IC50 (Miapaca-2 cells) [nM]
CC(=O)Nc1cc(-c2ccnc(-c3cc(NC(=O)c4ccnc(C(C)(C)C#N)c4)ccc3C)n2)ccn1 [Example 103],≤ 100,≤ 100,≤ 100,1000 to 10000
Cc1cc(F)c(NC(=O)c2ccnc(C(C)(C)C#N)c2)cc1-c1ccnc(-c2ccnc(NC=O)c2)c1 [Example 104],≤ 100,≤ 100,≤ 100,1000 to 10000
Cc1ncc(NC(=O)c2ccnc(C(C)(C)C#N)c2)cc1-c1cccc(-c2ccnc3c2CC(=O)N3)c1 [Example 105],≤ 100,1000 to 10000,100 to 500,1000 to 10000
Cc1ccc(NC(=O)c2cccc(C(C)(C)C#N)c2)cc1-c1cc(OCCO)nc(-c2ccnc3c2CC(=O)N3)c1 [Example 108],≤ 100,≤ 100,≤ 100,1000 to 10000
Cc1ccc(NC(=O)c2ccnc(C(C)(C)C#N)c2)cc1-c1cccc(-c2ncnc3c2CC(=O)N3)c1 [Example 109],≤ 100,100 to 500,≤ 100,1000 to 10000
Cc1ncc(NC(=O)c2ccnc(C(C)(C)C#N)c2)cc1-c1cccc(-c2ncnc3c2CC(=O)N3)c1 [Example 110],≤ 100,1000 to 10000,500 to 1000,1000 to 10000
Cc1ncc(NC(=O)c2ccnc(C(C)(C)C#N)c2)cc1-c1cccc(-c2ccnc3[nH]cnc23)c1 [Example 111],≤ 100,1000 to 10000,1000 to 10000,1000 to 10000
Cc1ccc(NC(=O)c2ccnc(C(C)(C)C#N)c2)cc1-c1cncc(-c2ccnc(NC(=O)C3CC3)c2)n1 [Example 112],≤ 100,≤ 100,≤ 100,1000 to 10000
CC(=O)Nc1cc(-c2cc(-c3cc(NC(=O)c4ccnc(C(C)(C)C#N)c4)ccc3C)cn(C)c2=O)ccn1 [Example 113],≤ 100,100 to 500,100 to 500,1000 to 10000
CC(=O)Nc1cc(-c2cccc(-c3cc(NC(=O)c4ccnc(C(F)(F)F)c4)c(F)cc3C)c2)ncn1 [Example 114],≤ 100,≤ 100,≤ 100,1000 to 10000
Cc1ccc(NC(=O)c2ccnc(C(F)F)c2)cc1-c1cncc(-c2ccnc(NC(=O)C3CC3)c2)n1 [Example 117],≤ 100,100 to 500,≤ 100,1000 to 10000
CC(=O)Nc1cc(-c2nccc(-c3cc(NC(=O)c4ccnc(C(C)(C)C#N)c4)ccc3C)n2)ccn1 [Example 118],≤ 100,≤ 100,≤ 100,1000 to 10000
Cc1ccc(NC(=O)c2ccnc(C(F)(F)F)c2)cc1-c1ccnc(-c2ccnc(N)c2)n1 [Example 122],≤ 100,1000 to 10000,1000 to 10000,1000 to 10000
Cc1ccc(NC(=O)c2ccnc(C(F)(F)F)c2)cc1-c1cncc(-c2ccnc(NC=O)c2)n1 [Example 123],≤ 100,100 to 500,100 to 500,1000 to 10000
CC(=O)Nc1cc(-c2cncc(-c3cc(NC(=O)c4cc(C(F)(F)F)ccn4)ccc3C)n2)ccn1 [Example 124],≤ 100,≤ 100,≤ 100,1000 to 10000
CC(=O)Nc1cc(-c2cncc(-c3cc(NC(=O)c4cccc(C(C)(C)C#N)c4)ccc3C)n2)ccn1 [Example 125],≤ 100,≤ 100,≤ 100,500 to 1000
Cc1ncc(NC(=O)c2ccnc(C(C)(C)C#N)c2)cc1-c1cccc(-c2ncnc3[nH]ncc23)c1 [Example 129],≤ 100,500 to 1000,100 to 500,1000 to 10000

SMILES,IC50 [1] [nM],IC50 (A375 cells) [nM],IC50 (WM3928 cells) [nM],IC50 (Miapaca-2 cells) [nM]
Cc1ncc(NC(=O)c2ccnc(C3CC3)c2)cc1-c1cccc(-c2ncnc3[nH]ncc23)c1 [Example 131],≤ 100,1000 to 10000,1000 to 10000,1000 to 10000
CC(=O)Nc1nccc(-c2cccc(-c3cc(NC(=O)c4ccnc(C(F)(F)F)c4)ccc3C)c2)c1C#N [Example 132],≤ 100,500 to 1000,100 to 500,1000 to 10000
Cc1ccc(NC(=O)c2ccnc(C(C)(C)C#N)c2)cc1-c1cccc(-c2ccnc3[nH]ncc23)c1 [Example 134],≤ 100,100 to 500,≤ 100,1000 to 10000
CC(=O)Nc1cc(-c2cncc(-c3cc(NC(=O)c4ccnc(C(C)(C)C#N)c4)ccc3C)n2)ccn1 [Example 140],≤ 100,≤ 100,≤ 100,500 to 1000
CC(=O)Nc1cc(-c2cncc(-c3cc(NC(=O)c4ccnc(C5CC5)c4)ccc3C)n2)ccn1 [Example 145],≤ 100,≤ 100,≤ 100,1000 to 10000
CC(=O)Nc1cc(-c2cncc(-c3cc(NC(=O)c4ccnc(C5(C#N)CC5)c4)ccc3C)n2)ccn1 [Example 146],≤ 100,≤ 100,≤ 100,1000 to 10000
Cc1ccc(NC(=O)c2ccnc(C(C)(C)C#N)c2)cc1-c1cncc(-c2ccnc(C(=O)NC3CC3)c2)n1 [Example 148],≤ 100,1000 to 10000,500 to 1000,1000 to 10000
CC(=O)Nc1cc(-c2nccc(-c3cc(NC(=O)c4cccc(C(C)(C)C#N)c4)ccc3C)n2)ccn1 [Example 150],≤ 100,≤ 100,≤ 100,1000 to 10000
CC(=O)Nc1cc(-c2nccc(-c3cc(NC(=O)c4ccnc(C5(C#N)CC5)c4)ccc3C)n2)ccn1 [Example 151],≤ 100,≤ 100,≤ 100,1000 to 10000
CC(=O)Nc1cc(-c2nccc(-c3cc(NC(=O)c4ccnc(C5CC5)c4)ccc3C)n2)ccn1 [Example 152],≤ 100,100 to 500,≤ 100,1000 to 10000
Cc1ccc(NC(=O)c2ccnc(C(C)(C)C#N)c2)cc1-c1cncc(-c2ccnc(NC(=O)CC#N)c2)n1 [Example 154],≤ 100,≤ 100,≤ 100,1000 to 10000
COCCNc1cc(-c2cccc(-c3cc(NC(=O)c4ccnc(C(F)(F)F)c4)ccc3C)c2)ncn1 [Example 156],≤ 100,1000 to 10000,500 to 1000,1000 to 10000
CC(=O)Nc1cc(-c2nccc(-c3cc(NC(=O)c4ccnc(C(F)(F)F)c4)cnc3C)n2)ccn1 [Example 157],≤ 100,1000 to 10000,100 to 500,1000 to 10000
CNC(=O)c1cc(-c2cc(-c3cc(NC(=O)c4ccnc(C(C)(C)C#N)c4)cnc3C)ccn2)ccn1 [Example 158],≤ 100,≤ 100,100 to 500,1000 to 10000
CNc1cc(-c2cccc(-c3cc(NC(=O)c4ccnc(C(C)(C)C#N)c4)ccc3C)c2)ncn1 [Example 160],≤ 100,100 to 500,≤ 100,1000 to 10000
Cc1ccc(NC(=O)c2ccnc(C(C)(C)C#N)c2)cc1-c1cncc(-c2ccnc(NC=O)c2)n1 [Example 161],≤ 100,≤ 100,≤ 100,1000 to 10000
Cc1ccc(NC(=O)c2ccnc(C(C)(C)C#N)c2)cc1-c1ccnc(-c2ccnc(C(=O)NC3CC3)c2)c1 [Example 162],≤ 100,100 to 500,100 to 500,1000 to 10000
